Results as given in patent publication US10258039B2, “Substituted pyrazolylpyrazole derivative and use of same as herbicide” (KYOYU AGRI CO., LTD., priority 2015, dated 2019).

Legend:
Type in all cases: in vivo
Monochoria vaginalis = test: Paddy herbicidal activity test; conditions: irrigated paddy pot, 30 days, 30° C.
Protocol: (§1) 1. Paddy Herbicidal Activity Test
(§2) Rice paddy soil was filled into a 1/10000 are pot followed by the addition of suitable amounts of water and chemical fertilizer, kneading, seeding with Echinochloa crus-galli, Monochoria vaginalis and Scirpus juncoides and maintaining in an irrigated state at a water depth of 3 cm.
(§3) Wettable powders of Target Compound (I) shown in. Table 1 prepared in compliance with the preparation examples were diluted with a suitable amount of water, rice plants in the 2.0 leaf stage were transplanted during 3.5 leaf stage of Echinochloa crus-galli, and treated by dropping in chemical in the prescribed amount per 10 are using a pipette.
(§4) After treating for 30 days in a glass greenhouse at an average atmospheric temperature of 30° C., the herbicidal efficacy thereof was investigated.
(§5) Evaluation of herbicidal efficacy was carried out by comparing growth inhibition rate (%) with an untreated group, while evaluation of phytotoxicity was carried out by comparing growth inhibition rate (%) with the state of a complete eradication group, and were evaluated at 11 levels indicated below.

Scirpus juncoides = test: Paddy herbicidal activity test; conditions: irrigated paddy pot, 30 days, 30° C.
Protocol: as §1, §2, §3, §4, §5

Echinochloa crus-galli = test: Paddy herbicidal activity test; conditions: irrigated paddy pot, treated at 3.5 leaf stage of Echinochloa crus-galli, 30 days, 30° C.
Protocol: as §1, §2, §3, §4, §5

Amaranthus retroflexus [1] = test: Weed foliar treatment test (Test 3, 1.0 to 2.0 leaf stage); conditions: foliar spray at 1.0 to 2.0 leaf stage of Digitaria ciliaris, 3 weeks, 25° C.
Protocol: (§6) 3. Weed Foliar Treatment Test
(§7) Soil was filled into a 1/6000 are pot followed by seeding with Digitaria ciliaris, Chenopodium album and Amaranthus retroflexus, covering with soil, and cultivating in a glass greenhouse at an average atmospheric temperature of 25° C.
(§8) Wettable powders of Target Compound (I) shown in Table 1 prepared in compliance with the preparation examples were diluted with water to the prescribed amount of chemical and uniformly sprayed onto the weeds using 150 liters of sprayed water per 10 are when Digitaria ciliaris had grown to the 1.0 to 2.0 leaf stage.
(§9) After treating for 3 weeks in a glass greenhouse at an average atmospheric temperature of 25° C., the herbicidal efficacy thereof was investigated.
(§10) Evaluation of herbicidal efficacy was carried out in the same manner as the above-mentioned Test Example 1.

Chenopodium album [2] = test: as above; conditions: foliar spray at 1.0 to 2.0 leaf stage of Digitaria ciliaris, 3 weeks, 25° C.
Protocol: as §6, §7, §8, §9, §10

Digitaria ciliaris [3] = test: as above; conditions: foliar spray at 1.0 to 2.0 leaf stage of Digitaria ciliaris, 3 weeks, 25° C.
Protocol: as §6, §7, §8, §9, §10

Galinsoga parviflora = test: Weed foliar treatment test (Test 4, 4.0 to 5.0 leaf stage); conditions: 10g a.i./10a; foliar spray at 4.0 to 5.0 leaf stage of Digitaria ciliaris; 20 days, 25° C.
Protocol: (§11) 4. Weed Foliar Treatment Test
(§12) Field soil was filled into a 1/4500 are pot followed by seeding with Digitaria ciliaris and Galinsoga parviflora, covering with soil and cultivating in a glass greenhouse at an average atmospheric temperature of 25° C.
as §8, with “100” for “150”, “4.0” for “1.0”, “5.0” for “2.0”, “stage (plant height: 10 cm to 15 cm).” for “stage.”
(§13) After treating for 20 days in a glass greenhouse at an average atmospheric temperature of 25° C., the herbicidal efficacy thereof was investigated.
as §10

Digitaria ciliaris [4] = test: as above; conditions: 10g a.i./10a; foliar spray at 4.0 to 5.0 leaf stage of Digitaria ciliaris (plant height 10 cm to 15 cm); 20 days, 25° C.
Protocol: as §11, §12
as §8, with “100” for “150”, “4.0” for “1.0”, “5.0” for “2.0”, “stage (plant height: 10 cm to 15 cm).” for “stage.”
as §13, §10

Oryza sativa = test: Paddy herbicidal activity test, phytotoxicity to transplanted rice; conditions: rice transplanted at 2.0 leaf stage, 30 days, 30° C.
Protocol: as §1, §2, §3, §4, §5

Amaranthus retroflexus [5] = test: Farming soil treatment test; conditions: soil surface spray prior to weed growth, 30 days, 30° C.
Protocol: (§14) 2. Farming Soil Treatment Test
(§15) Field soil was filled into a 1/6000 are pot followed by seeding with Digitaria ciliaris, Chenopodium album and Amaranthus retroflexus and covering with soil.
(§16) Wettable powders of compounds of formula (I) shown in Table 1 prepared in compliance with the preparation examples were diluted with water to the prescribed amount of chemical and uniformly sprayed onto each soil surface layer using 100 liters of sprayed water per 10 are prior to weed growth following seeding.
as §4, §10

Chenopodium album [6] = test: Farming soil treatment test; conditions: soil surface spray prior to weed growth, 30 days, 30° C.
Protocol: as §14, §15, §16, §4, §10

Digitaria ciliaris [7] = test: Farming soil treatment test; conditions: soil surface spray prior to weed growth, 30 days, 30° C.
Protocol: as §14, §15, §16, §4, §10

## N#Cc1cnn(-c2nn3c(c2Cl)CCCC3)c1NC(=O)C1CC1 [Control agent 4.190, reference compound]
Monochoria vaginalis; 1g a.i./10a
  herbicidal efficacy, Monochoria vaginalis: 4 (4: 40% to less than 50%)
Monochoria vaginalis; 5g a.i./10a
  herbicidal efficacy, Monochoria vaginalis: 5 (5: 50% to less than 60%)
Scirpus juncoides; 1g a.i./10a
  herbicidal efficacy, Scirpus juncoides: 4 (4: 40% to less than 50%)
Scirpus juncoides; 5g a.i./10a
  herbicidal efficacy, Scirpus juncoides: 5 (5: 50% to less than 60%)
Echinochloa crus-galli; 1g a.i./10a
  herbicidal efficacy, Echinochloa crus-galli: 6 (6: 60% to less than 70%)
Echinochloa crus-galli; 5g a.i./10a
  herbicidal efficacy, Echinochloa crus-galli: 6 (6: 60% to less than 70%)
Amaranthus retroflexus [1]; 5g a.i./10a
  herbicidal efficacy, Amaranthus retroflexus: 4 (4: 40% to less than 50%)
Amaranthus retroflexus [1]; 10g a.i./10a
  herbicidal efficacy, Amaranthus retroflexus: 6 (6: 60% to less than 70%)
Chenopodium album [2]; 5g a.i./10a
  herbicidal efficacy, Chenopodium album: 5 (5: 50% to less than 60%)
Chenopodium album [2]; 10g a.i./10a
  herbicidal efficacy, Chenopodium album: 6 (6: 60% to less than 70%)
Digitaria ciliaris [3]; 5g a.i./10a
  herbicidal efficacy, Digitaria ciliaris: 5 (5: 50% to less than 60%)
Digitaria ciliaris [3]; 10g a.i./10a
  herbicidal efficacy, Digitaria ciliaris: 6 (6: 60% to less than 70%)
Galinsoga parviflora
  herbicidal efficacy, Galinsoga parviflora: 4 (4: 40% to less than 50%)
Digitaria ciliaris [4]
  herbicidal efficacy, Digitaria ciliaris: 2 (2: 20% to less than 30%)
Oryza sativa; 1g a.i./10a
  phytotoxicity, Oryza sativa: 8 (8: 80% to less than 90%)
Oryza sativa; 5g a.i./10a
  phytotoxicity, Oryza sativa: 9 (9: 90% to less than 100%)
Amaranthus retroflexus [5]; 5g a.i./10a
  herbicidal efficacy, Amaranthus retroflexus: 4 (4: 40% to less than 50%)
Amaranthus retroflexus [5]; 10g a.i./10a
  herbicidal efficacy, Amaranthus retroflexus: 4 (4: 40% to less than 50%)
Chenopodium album [6]; 5g a.i./10a
  herbicidal efficacy, Chenopodium album: 5 (5: 50% to less than 60%)
Chenopodium album [6]; 10g a.i./10a
  herbicidal efficacy, Chenopodium album: 6 (6: 60% to less than 70%)
Digitaria ciliaris [7]; 5g a.i./10a
  herbicidal efficacy, Digitaria ciliaris: 3 (3: 30% to less than 40%)
Digitaria ciliaris [7]; 10g a.i./10a
  herbicidal efficacy, Digitaria ciliaris: 4 (4: 40% to less than 50%)
